Measurements from patent publication US7169800B2, “Imidazole compositions useful as inhibitors of protein kinases” (Vertex Pharmaceuticals Incorporated, priority 2003, dated 2007).
pKi: −log10 of the molar value.

Key:
Format in all cases: biochemical
c-Met = c-Met (Homo sapiens, UniProt P08581); test: Ki determination for the inhibition of c-Met (coupled enzyme system); settings: 200 μM ATP, 10 μM polyGluTyr, 80 nM c-Met, 30° C.
Description: Compounds were screened for their ability to inhibit c-Met kinase activity using a standard coupled enzyme system (Fox et al., Protein Sci. 1998, 7, 2249). Reactions were carried out in a solution containing 100 mM HEPES (pH 7.5), 10 mM MgCl2, 25 mM NaCl, 300 μM NADH, 1 mM DTT, and 1.5% DMSO. Final substrate concentrations in the assay were 200 μM ATP (Sigma Chemicals, St Louis, Mo.) and 10 μM polyGluTyr (Sigma Chemical Company, St. Louis). Reactions were carried out at 30° C. and 80 nM c-Met. Final concentrations of the components of the coupled enzyme system were 2.5 mM phosphoenolpyruvate, 300 μM NADH, 30 μg/ml pyruvate kinase and 10 μg/ml lactate dehydrogenase.
An assay stock buffer solution was prepared containing all of the reagents listed above with the exception of ATP and a test compound of the present invention. The assay stock buffer solution (175 μl) was incubated in a 96 well plate with 5 μl of the test compound of the present invention at final concentrations spanning 0.006 μM to 12.5 μM at 30° C. for 10 minutes. […] Rates of reaction were obtained using a Molecular Devices Spectramax plate reader (Sunnyvale, Calif.) over 10 minutes at 30° C. The Ki values were determined from the rate data as a function of inhibitor concentration.

JAK3 = target: T1, JAK3 (Homo sapiens, UniProt P52333); test: JAK3 inhibition assay (33P incorporation); settings: 5 uM ATP, 1 uM poly(Glu)4Tyr, 1 nM JAK3, 25C
T1 sequence (P52333 1-1124): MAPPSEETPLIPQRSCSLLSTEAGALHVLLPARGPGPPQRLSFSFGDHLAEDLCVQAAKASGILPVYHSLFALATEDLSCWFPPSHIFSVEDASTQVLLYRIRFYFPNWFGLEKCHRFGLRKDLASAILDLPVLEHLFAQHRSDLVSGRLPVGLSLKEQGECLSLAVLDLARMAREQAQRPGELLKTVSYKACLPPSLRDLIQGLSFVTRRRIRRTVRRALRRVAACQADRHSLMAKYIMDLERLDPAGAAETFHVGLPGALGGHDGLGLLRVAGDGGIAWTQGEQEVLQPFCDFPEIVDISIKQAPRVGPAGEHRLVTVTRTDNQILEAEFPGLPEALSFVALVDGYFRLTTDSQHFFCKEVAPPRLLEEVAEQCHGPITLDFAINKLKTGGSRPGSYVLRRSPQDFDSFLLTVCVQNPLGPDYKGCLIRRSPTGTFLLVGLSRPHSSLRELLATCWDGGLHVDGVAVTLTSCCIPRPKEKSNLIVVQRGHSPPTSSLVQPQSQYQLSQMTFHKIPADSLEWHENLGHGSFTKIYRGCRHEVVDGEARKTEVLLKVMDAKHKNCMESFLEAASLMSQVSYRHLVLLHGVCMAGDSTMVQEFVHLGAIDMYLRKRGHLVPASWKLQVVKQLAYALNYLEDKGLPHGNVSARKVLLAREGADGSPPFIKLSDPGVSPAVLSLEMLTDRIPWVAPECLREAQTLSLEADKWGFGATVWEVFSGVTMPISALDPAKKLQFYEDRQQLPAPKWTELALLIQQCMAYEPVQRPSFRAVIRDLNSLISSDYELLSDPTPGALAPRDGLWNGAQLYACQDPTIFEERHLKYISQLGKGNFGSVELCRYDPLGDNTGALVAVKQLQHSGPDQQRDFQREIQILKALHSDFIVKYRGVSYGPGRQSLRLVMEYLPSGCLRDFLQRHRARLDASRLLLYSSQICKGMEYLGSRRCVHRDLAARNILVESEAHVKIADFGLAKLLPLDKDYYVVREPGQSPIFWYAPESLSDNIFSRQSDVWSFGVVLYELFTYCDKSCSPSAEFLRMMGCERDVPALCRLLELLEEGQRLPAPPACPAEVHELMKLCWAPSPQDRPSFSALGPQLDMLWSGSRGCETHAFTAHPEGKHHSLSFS
Description: • kinase buffer: (100 mM HEPES pH 7.4; 1 mM DTT; 10 mM MgCl2; 25 mM NaCl; and 0.01% BSA) • 1 nM JAK3 (enzyme) • 1 uM poly(Glu)4Tyr (substrate) • 5 uM ATP (substrate, 200 uCi/umole ATP) Procedure
To each well of a 96 well polycarbonate plate is added 1.5 ul of a candidate JAK3 inhibitor along with 50 ul of kinase buffer containing 2 uM poly(Glu)4Tyr and 10 uM ATP. This is then mixed and 50 ul of kinase buffer containing 2 nM JAK3 enzyme is added to start the reaction. After 20 minutes at room temperature (25C), the reaction is stopped with 50 ul of 20% trichloroacetic acid (TCA) that also contains 0.4 mM ATP. The entire content of each well is then transferred to a 96 well glass fiber filter plate using a TomTek Cell Harvester. After washing, 60 ul of scintillation fluid is added and 33P incorporation detected on a Perkin Elmer TopCount.

KDR = KDR (Homo sapiens, UniProt P35968); test: KDR enzyme assay (coupled enzyme assay); settings: 300 μM ATP, 10 μM poly E4Y, 30 nM KDR, 37° C.; read-out: Ki value, inhibition of KDR
Description: Compounds were screened for their ability to inhibit KDR using a standard coupled enzyme assay (Fox et al., Protein Sci., (1998) 7, 2249). Assays were carried out in a mixture of 200 mM HEPES 7.5, 10 mM MgCl2, 25 mM NaCl, 1 mM DTT and 1.5% DMSO. Final substrate concentrations in the assay were 300 μM ATP (Sigma Chemicals) and 10 μM poly E4Y (Sigma). Assays were carried out at 37° C. and 30 nM KDR. Final concentrations of the components of the coupled enzyme system were 2.5 mM phosphoenolpyruvate, 200 μM NADH, 30 μg/ML pyruvate kinase and 10 μg/ml lactate dehydrogenase.
An assay stock buffer solution was prepared containing all of the reagents listed above, with the exception of ATP and the test compound of interest. 177 μl of the stock solution was placed in a 96 well plate followed by addition of 3 μl of 2 mM DMSO stock containing the test compound (final compound concentration 30 μM). The plate was preincubated for about 10 minutes at 37° C. and the reaction initiated by addition of 20 μl of ATP (final concentration 300 μM). Rates of reaction were obtained using a Molecular Devices plate reader (Sunnyvale, Calif.) over a 5 minute read time at 37° C.

Sequence of KDR (P35968 20-1356): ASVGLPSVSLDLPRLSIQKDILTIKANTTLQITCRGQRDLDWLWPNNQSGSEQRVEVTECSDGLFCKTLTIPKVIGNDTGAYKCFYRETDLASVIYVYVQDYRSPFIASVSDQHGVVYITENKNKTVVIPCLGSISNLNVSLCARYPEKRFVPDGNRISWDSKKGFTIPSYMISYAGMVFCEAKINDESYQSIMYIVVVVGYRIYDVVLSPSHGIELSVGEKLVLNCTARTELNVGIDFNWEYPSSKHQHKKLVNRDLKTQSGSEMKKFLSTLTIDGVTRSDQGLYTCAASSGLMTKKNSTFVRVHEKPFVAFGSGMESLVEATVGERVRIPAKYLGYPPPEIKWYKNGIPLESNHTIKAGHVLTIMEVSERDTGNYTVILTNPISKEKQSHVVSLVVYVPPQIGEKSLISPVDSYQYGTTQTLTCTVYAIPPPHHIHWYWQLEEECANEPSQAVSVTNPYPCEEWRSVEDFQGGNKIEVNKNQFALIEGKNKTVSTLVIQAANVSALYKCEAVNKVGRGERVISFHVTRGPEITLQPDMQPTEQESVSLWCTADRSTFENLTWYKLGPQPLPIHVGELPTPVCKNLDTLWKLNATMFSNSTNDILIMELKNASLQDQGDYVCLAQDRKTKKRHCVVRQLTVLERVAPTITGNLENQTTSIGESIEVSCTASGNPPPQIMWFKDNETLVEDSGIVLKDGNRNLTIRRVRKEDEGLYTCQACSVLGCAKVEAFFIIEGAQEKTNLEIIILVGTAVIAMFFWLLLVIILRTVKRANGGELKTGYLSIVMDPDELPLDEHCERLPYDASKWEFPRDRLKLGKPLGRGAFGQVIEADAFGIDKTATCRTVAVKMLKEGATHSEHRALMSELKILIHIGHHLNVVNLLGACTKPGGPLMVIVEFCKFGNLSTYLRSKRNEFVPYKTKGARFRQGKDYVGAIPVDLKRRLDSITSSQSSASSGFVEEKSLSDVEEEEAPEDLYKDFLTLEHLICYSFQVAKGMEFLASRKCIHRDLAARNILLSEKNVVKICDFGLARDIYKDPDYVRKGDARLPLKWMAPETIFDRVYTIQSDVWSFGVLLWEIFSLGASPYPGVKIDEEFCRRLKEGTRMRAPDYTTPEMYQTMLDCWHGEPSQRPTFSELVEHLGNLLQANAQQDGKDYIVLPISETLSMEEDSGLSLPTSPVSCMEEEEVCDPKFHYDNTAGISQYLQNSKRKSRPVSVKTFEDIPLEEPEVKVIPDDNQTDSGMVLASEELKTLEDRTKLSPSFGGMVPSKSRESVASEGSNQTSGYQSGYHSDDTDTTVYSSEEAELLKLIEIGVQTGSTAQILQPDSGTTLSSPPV
Sequence of c-Met (P08581 25-1390): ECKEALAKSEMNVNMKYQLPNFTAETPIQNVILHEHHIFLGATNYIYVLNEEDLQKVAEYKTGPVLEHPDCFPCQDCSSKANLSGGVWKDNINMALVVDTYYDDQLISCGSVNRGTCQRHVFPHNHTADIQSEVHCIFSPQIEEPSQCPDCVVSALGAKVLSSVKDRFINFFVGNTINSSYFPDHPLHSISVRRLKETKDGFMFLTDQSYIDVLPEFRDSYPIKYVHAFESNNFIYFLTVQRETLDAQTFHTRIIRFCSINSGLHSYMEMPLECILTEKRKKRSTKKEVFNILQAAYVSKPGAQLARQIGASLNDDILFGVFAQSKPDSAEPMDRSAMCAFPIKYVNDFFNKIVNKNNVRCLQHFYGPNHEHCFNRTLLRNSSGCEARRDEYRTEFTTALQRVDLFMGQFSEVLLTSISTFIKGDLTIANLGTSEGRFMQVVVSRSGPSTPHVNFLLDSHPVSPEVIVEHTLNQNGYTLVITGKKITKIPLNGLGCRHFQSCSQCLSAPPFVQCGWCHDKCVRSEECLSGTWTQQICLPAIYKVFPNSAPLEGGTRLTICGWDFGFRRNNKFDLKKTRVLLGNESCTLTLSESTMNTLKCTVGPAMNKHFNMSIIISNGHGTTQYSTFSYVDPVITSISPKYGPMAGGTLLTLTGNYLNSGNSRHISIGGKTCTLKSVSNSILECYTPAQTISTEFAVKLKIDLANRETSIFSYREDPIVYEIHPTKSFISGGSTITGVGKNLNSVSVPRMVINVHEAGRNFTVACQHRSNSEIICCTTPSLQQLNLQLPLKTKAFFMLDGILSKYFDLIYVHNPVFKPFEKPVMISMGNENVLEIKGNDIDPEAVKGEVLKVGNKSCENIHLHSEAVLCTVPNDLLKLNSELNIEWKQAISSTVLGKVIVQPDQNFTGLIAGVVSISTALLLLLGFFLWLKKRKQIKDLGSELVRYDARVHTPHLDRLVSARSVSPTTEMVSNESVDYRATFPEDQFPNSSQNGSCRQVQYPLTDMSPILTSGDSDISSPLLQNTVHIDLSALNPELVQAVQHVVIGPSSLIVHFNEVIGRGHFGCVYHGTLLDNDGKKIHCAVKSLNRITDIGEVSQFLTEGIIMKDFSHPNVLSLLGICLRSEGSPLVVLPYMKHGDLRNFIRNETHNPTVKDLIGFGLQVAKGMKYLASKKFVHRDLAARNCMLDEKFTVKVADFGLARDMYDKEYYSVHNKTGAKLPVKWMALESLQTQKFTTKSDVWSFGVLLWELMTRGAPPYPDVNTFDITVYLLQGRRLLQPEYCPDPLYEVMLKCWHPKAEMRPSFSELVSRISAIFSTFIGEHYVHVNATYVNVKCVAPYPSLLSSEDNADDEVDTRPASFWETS

pKi (c-Met): > 6.00
pKi (JAK3): > 6.00
pKi (KDR): > 5.30
SMILES: O=C(c1nc(-c2oncc2-c2cccc(F)c2F)c[nH]1)N1CC=CC1 [Compound I-38, {4-[4-(2,3-Difluoro-phenyl)-isoxazol-5-yl]-1H-imidazol-2-yl}-(2,5-dihydro-pyrrol-1-yl)-methanone]
